Measurements from paper PMC7762957, “Snapshots during the catalytic cycle of a histidine acid phytase reveal an induced-fit structural mechanism” (The Journal of Biological Chemistry, 2020).

Key:
AnPhyA = target: T1, AnPhyA (Aspergillus niger, UniProt P34752); assay: HPLC of inositol polyphosphate products; assay type: biochemical; details: pH 5.5, 200 mM sodium acetate, 150 mM NaCl; 1 mM substrate, 25 nM enzyme
T1 construct: gene phyA; codon-optimised, N-terminal 3C site, C-terminal His6; secreted from Pichia pastoris KM71H; Ni-NTA purified
T1 sequence (P34752 24-467): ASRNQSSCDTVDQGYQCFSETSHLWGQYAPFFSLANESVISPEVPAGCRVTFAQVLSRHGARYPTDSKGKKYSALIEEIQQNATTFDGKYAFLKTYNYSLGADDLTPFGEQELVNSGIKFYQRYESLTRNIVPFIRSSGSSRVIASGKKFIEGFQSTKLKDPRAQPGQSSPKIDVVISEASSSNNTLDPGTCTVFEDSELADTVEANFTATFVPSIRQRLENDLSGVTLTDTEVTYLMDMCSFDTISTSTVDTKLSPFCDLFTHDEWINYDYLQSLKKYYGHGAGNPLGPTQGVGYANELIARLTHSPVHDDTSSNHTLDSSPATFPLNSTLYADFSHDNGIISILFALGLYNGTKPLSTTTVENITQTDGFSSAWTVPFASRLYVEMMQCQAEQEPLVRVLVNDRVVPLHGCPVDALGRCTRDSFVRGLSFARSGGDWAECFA

BtMINPP = target: T2, BtMINPP (Bacteroides thetaiotaomicron, UniProt Q89YI8); assay: HPLC of inositol polyphosphate products; assay type: biochemical; details: pH 5.5, 200 mM sodium acetate, 150 mM NaCl; 1 mM substrate, 25 nM enzyme
T2 construct: gene BT_4744
T2 sequence (Q89YI8 21-425): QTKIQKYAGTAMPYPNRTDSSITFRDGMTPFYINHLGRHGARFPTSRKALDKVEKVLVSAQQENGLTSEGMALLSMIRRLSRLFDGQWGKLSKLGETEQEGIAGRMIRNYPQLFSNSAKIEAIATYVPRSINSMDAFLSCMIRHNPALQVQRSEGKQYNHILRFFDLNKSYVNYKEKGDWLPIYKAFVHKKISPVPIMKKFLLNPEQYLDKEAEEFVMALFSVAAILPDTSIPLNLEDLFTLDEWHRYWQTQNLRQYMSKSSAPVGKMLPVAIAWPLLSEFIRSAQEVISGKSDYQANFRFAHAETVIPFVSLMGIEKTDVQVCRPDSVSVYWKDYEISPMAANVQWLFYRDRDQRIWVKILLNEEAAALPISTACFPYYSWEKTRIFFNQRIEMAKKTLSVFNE

EcAppA = target: T3, EcAppA (Escherichia coli, UniProt P07102); assay: HPLC of inositol polyphosphate products; assay type: biochemical; details: pH 5.5, 200 mM sodium acetate, 150 mM NaCl; 1 mM substrate, 25 nM enzyme
T3 construct: gene appA; pOPINB, N-terminal cleavable His tag, cytoplasmic expression in E. coli Shuffle Express T7; Ni-NTA and gel filtration
T3 sequence (P07102 23-432): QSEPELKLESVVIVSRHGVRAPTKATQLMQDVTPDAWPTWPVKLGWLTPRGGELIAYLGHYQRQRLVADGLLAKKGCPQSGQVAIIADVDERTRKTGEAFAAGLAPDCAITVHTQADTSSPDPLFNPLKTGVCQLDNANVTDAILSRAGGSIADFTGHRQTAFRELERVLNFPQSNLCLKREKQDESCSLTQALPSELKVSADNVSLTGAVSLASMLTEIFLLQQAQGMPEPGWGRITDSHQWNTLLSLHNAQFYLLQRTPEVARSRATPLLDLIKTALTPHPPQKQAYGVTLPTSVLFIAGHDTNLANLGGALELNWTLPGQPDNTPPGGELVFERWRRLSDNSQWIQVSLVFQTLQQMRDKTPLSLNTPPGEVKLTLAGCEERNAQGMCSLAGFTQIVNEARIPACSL

BlMINPP = BlMINPP (Bifidobacterium longum, UniProt B7GTV0); assay: X-ray crystal structure of complex, […] A; assay type: binding; design: gene Blon_0263; N-terminal His6 tag cleaved (WT: pOPINF, 3C protease; variants: pET28a, thrombin); E. coli Rosetta(DE3) pLysS; details: non-hydrolysable substrate analogue in active site, two orientations; co-crystallised with 1 mM InsS6
purified protein = substrate: O=P(O)(O)O[C@H]1[C@H](OP(=O)(O)O)[C@@H](OP(=O)(O)O)[C@H](OP(=O)(O)O)[C@@H](OP(=O)(O)O)[C@H]1OP(=O)(O)O; assay: purified protein; details: pH 5.5, 200 mM sodium acetate, 0.15 M NaCl, room temperature, 25 nM enzyme

O=P(O)(O)O[C@H]1[C@H](OP(=O)(O)O)[C@@H](OP(=O)(O)O)[C@H](OP(=O)(O)O)[C@@H](OP(=O)(O)O)[C@H]1OP(=O)(O)O [InsP6, myo-Inositol 1,2,3,4,5,6-hexakisphosphate]
HPLC of inositol polyphosphate products (AnPhyA): products of InsP6 hydrolysis by BlMINPP, BtMINPP, A. niger PhyA (AnPhyA) | HPLC of inositol polyphosphate products (BtMINPP): HPLC chromatograms of the products of InsP6 hydrolysis by BlMINPP, BtMINPP | HPLC of inositol polyphosphate products (EcAppA): E.coli AppA, which is accepted to possess high positional specificity

O=S(=O)(O)O[C@H]1[C@H](OS(=O)(=O)O)[C@@H](OS(=O)(=O)O)[C@H](OS(=O)(=O)O)[C@@H](OS(=O)(=O)O)[C@H]1OS(=O)(=O)O [InsS6]
X-ray crystal structure of complex, 1.84 A (BlMINPP): A crystal of the purified recombinant enzyme grown in the presence of an excess InsS6

B1: BlMINPP (Bifidobacterium longum subsp. infantis ATCC 15697 = JCM 1222 = DSM 20088) (protein)
chain: MEADGRYYSSKQPYVAPNDATASSYSKAPKGYGPIYTESMARHGSRGLSSYKYDALLMRMAETAARDGGFKSEAIKAEFVKNLSGITAANVENGYGMLTGQGAQQHYGIGERAYQRNRSLFDQAAADGGTIAYQSSGEARATESGENFEKGFNEASGGRLIGNVSAPTNPADSGNGKDFQKNPDTLYFHKVQNPDGTSKVPGTKAYDIANNYQNFVANDATIAGAEKTIGDNVDVKRASHDLLSQIFTEEFLAKLENGEYKWYNTTDGTKKGGKNCAPGADASKDPDACGEVSKKIKSEYDAAMDLYNLYIIAADMHNENTGDHTFAFDQYFQGAYADDARMFAWALDAEDFYEKGPSYAGQNETYSIAQPLLDDFLNTIDARVNGGSTVATFRFAHAETMMPFAALLGLPGSTQQAPASTTDVYTYGNNEWRGESVTPMAANVQWDVYARKGEDPATGQRYTPIVRMLYNENEVPFRSECTPVADGSTWYKLTELKSCLAADHKTLGQDARI
Km (purified protein): 54.5 ± 8.4 µM | kcat (purified protein): 46.8 s⁻¹ | kcat/Km (purified protein): 900000 M⁻¹ s⁻¹
